Experimental data from publication PMC10618793, “Investigating cannabinoids as P2X purinoreceptor 4 ligands by using surface plasmon resonance and computational docking” (Heliyon, 2023).
Several values for one entry are separate records, joined by “and”; a condition that tells them apart may be missing. Identical values can stand only once. Entries after “also recorded” stand apart in the source; their conditions may differ. Like-named read-outs stand apart in the source and are kept apart here.

Legend:
[1] = biological target: T1, P2X4 receptor (Homo sapiens, UniProt Q99571); experiment: Surface plasmon resonance binding screening assay; settings: for binding affinity with P2X4 (in words) / RU (Response Units) values compared with theoretical Rmax: SPR screening; for binding affinity with P2X4 (in words) / Kd / koff / kon: 0.4-300 μM; for association/dissociation phase with P2X4 (sensorgram, in words): SPR screening sensorgrams, Fig. 3; for Kd / koff / kon: SPR Biacore T200, P2X4 immobilized on CM5 chip, 1:1 binding model, n.d. = not detectable; for koff: read-out: Koff (dissociation rate); for kon: read-out: Kon (association rate); for RU (Response Units) values compared with theoretical Rmax: attributed to matrix binding effects
T1 construct: His tag (N); purchased MyBioSource, Inc (San Diego, CA, USA)
T1 sequence (Q99571 77-338): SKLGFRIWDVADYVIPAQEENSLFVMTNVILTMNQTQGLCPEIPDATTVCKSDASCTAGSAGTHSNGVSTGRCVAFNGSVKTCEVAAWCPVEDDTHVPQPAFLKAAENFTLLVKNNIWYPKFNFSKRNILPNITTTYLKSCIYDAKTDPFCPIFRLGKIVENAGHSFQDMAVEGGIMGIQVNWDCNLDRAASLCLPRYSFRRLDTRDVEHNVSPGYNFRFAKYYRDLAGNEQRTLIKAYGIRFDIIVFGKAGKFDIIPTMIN

[2] = biological target: T1, P2X4 receptor; experiment: Surface plasmon resonance competitive binding assay; settings: for Response Unit (RU): 5-BDBD alone, 1:1 combination, 5 or 1 μM; for experimental binding response unit (RU): validation BX430 vs 5-BDBD, single binders at 1 μM and 1:1 combination, Fig. 4B; for type of binding on P2X4 relative to 5-BDBD: experimental 1:1 combination RU compared with theoretical RU values
Description: Recombinant human P2X4 (500 μg/mL stock solution in Dnase free water) was diluted to 40 μg/mL in sodium acetate 4.0. The protein was immobilized on a CM5 chip based on an amine coupling method as previously described with minor modification. Briefly, the immobilization method involved five phases. First, a stable baseline was established, and a response was observed. […] Both binding association and dissociation were identified as ethanolamine hydrochloride (1 M; pH 8.5) deactivated unreacted NHS-esters and removed electrostatically bound ligands with a contact time of 420 s and a flow rate of 10 μL/min. Completion of all five phases indicated successful immobilization of the P2X4 protein on the SPR sensor chip.
A competitive SPR binding assay was designed to narrow down the cannabinoids’ binding site on P2X4. […] Both compounds were dissolved in DMSO at 10 mM and diluted to 10 μM in PBS (20 mM). […] Subsequently, they were diluted to a working concentration of 10 μM using PBS (20 mM) as the diluent. For individual runs, each antagonist was further diluted with the running buffer, composed of PBS (20 mM) with 3 % DMSO, resulting in a final concentration of 1 μM. To evaluate the interaction of both antagonists simultaneously, a 1:1 combination ratio was employed. Glycine, at a pH of 2.5 was utilized as the regeneration buffer. Additionally, solvent correction cycles were incorporated, consisting of eight correction points ranging from 2.5 % to 3.8 % of DMSO content, ensuring accurate data interpretation during the experimental procedure.
Compounds were initially prepared at a concentration of 10 mM in DMSO and subsequently diluted in PBS (20 mM) to either 10 or 2 μM, depending on the binding response unit (RU) observed during the binding screening assays. For individual evaluations, compounds were diluted in a 1:1 combination ratio with the running buffer, PBS (20 mM) + 3 % DMSO, to either 5 or 1 μM.
These mixtures were subsequently diluted to either 5 or 1 μM using the running buffer.
The theoretical non-competitive value was calculated as the sum of the experimental RU values of the cannabinoid and BX430, or the cannabinoid and 5-BDBD. The combined experimental RU value was compared to both the competitive and non-competitive theoretical RU values to determine the type of binding.

[3] = tested on: human P2X4; settings: HEK293 cells expressing human P2X4; cited from earlier work
[4] = tested on: P2X4; parameters: method as in PMID 28588493; settings: selective non-competitive (allosteric) antagonist of P2X4; cited from earlier work
[5] = KD (equilibrium dissociation constant)
[6] = read-out: KD (equilibrium dissociation constant)

SMILES | binding affinity with P2X4 (in words) [1] | Kd [1, 5] | koff [1] | kon [1] | further results
CCCCCc1cc(O)c2c(c1)OC(C)(C)c1ccc(C)cc1-2 [CBN, cannabinol] | did not demonstrate any binding affinity | – | – | – | –
CCCc1cc(O)c(C/C=C(\C)CCC=C(C)C)c(O)c1 [CBGV, cannabigerovarin] | – | – | – | – | association/dissociation phase with P2X4 (sensorgram, in words) [1]: slow dissociation phase
CCCCCc1cc(O)c(C/C=C(\C)CCC=C(C)C)c(O)c1 [CBG, cannabigerol] | did not demonstrate any binding affinity | – | – | – | –
CCCCCc1cc(O)c(C/C=C(\C)CCC=C(C)C)c(OC)c1 [CBGM, cannabigerol monomethyl ether] | did not demonstrate any binding affinity | – | – | – | –
CCCCCCCc1cc(O)c2c(c1)OC(C)(C)C1CCC(C)=CC21 (stereo not drawn) [THCP, Δ^9-tetrahydrocannabiphorol] | did not demonstrate any binding affinity | – | – | – | –
CC(C)=CCC/C(C)=C/Cc1c(O)cc(C)c(C(=O)O)c1O [CBGOA, cannabigerorcinic acid] | – | 140 µM and > 10 µM | 0.375 s⁻¹ | 2720 M⁻¹ s⁻¹ | Kd [1, 6]: 138 µM; RU (Response Units) values compared with theoretical Rmax [1]: higher than the theoretical Rmax
C=C(C)[C@@H]1CCC(C)=C[C@H]1c1c(O)cc(CCC)cc1O [CBDV, cannabidivarin] | – | 9.9 µM | 0.12 s⁻¹ | 12100 M⁻¹ s⁻¹ | Kd [1, 6]: 9.91 µM
C=C(C)[C@@H]1C[C@H](O)C(C)=C[C@H]1c1c(O)cc(CCCCC)cc1O [6α–OH–CBD, 6α-hydroxy cannabidiol] | – | 340 µM and > 10 µM | 0.427 s⁻¹ | 1270 M⁻¹ s⁻¹ | Kd [1, 6]: 337 µM; RU (Response Units) values compared with theoretical Rmax [1]: higher than the theoretical Rmax
CCCCCc1cc(O)c2c(c1)OC(C)(CCC=C(C)C)C=C2 (stereo not drawn) [CBC, cannabichromene] | did not demonstrate any binding affinity | – | – | – | –
O=C1CN=C(c2cccc(Br)c2)c2oc3ccccc3c2N1 [5-BDBD, reference compound] | – | – | – | – | Response Unit (RU) ([2]; Fig. 6A: CBD alone): 5.8 RU; Response Unit (RU) ([2]; Fig. 6E: CBV alone): 6.4 RU; experimental binding response unit (RU) [2]: 34.9 RU; IC50 [3]: […]
C=C(C)c1ccc(C)cc1-c1c(O)cc(CCCCC)cc1O [CBND, cannabinodiol] | – | 84 µM | 0.128 s⁻¹ | 1520 M⁻¹ s⁻¹ | Kd [1, 6]: 84.2 µM; RU (Response Units) values compared with theoretical Rmax [1]: higher than the theoretical Rmax
C=C(C)[C@@H]1CCC(C)=C[C@H]1c1c(O)cc(CCCCC)c(C(=O)OC)c1O [CBDAME, cannabidiolic acid methyl ester] | did not demonstrate any binding affinity | – | – | – | –
CCCCCc1cc(O)c2c(c1)OC(C)(C)C1CCC(CO)=CC21 (stereo not drawn) [11-OH-THC] | – | 6.31 µM | 0.0742 s⁻¹ | 11800 M⁻¹ s⁻¹ | –
C=C(C)C1CCC(C)=CC1c1c(O)cc(CCCC)cc1O (stereo not drawn) [CBDB, cannabidibutol] | did not demonstrate any binding affinity | – | – | – | –
CCCCCc1cc2c(c(O)c1C(=O)O)[C@@H]1CC(C)=CC[C@H]1C(C)(C)O2 [Δ^8-THCA-A, Δ^8-trans-tetrahydrocannabinolic acid A] | – | 76 µM and 76.4 µM | 0.0812 s⁻¹ | 1060 M⁻¹ s⁻¹ | association/dissociation phase with P2X4 (sensorgram, in words) [1]: slow association and dissociation phases; RU (Response Units) values compared with theoretical Rmax [1]: higher than the theoretical Rmax
CCCCCc1cc(O)c(C/C=C(\C)CCC=C(C)C)c(O)c1C(=O)O [CBGA, cannabigerolic acid] | – | 140 µM and > 10 µM | 0.119 s⁻¹ | 824 M⁻¹ s⁻¹ | Kd [1, 6]: 144 µM; association/dissociation phase with P2X4 (sensorgram, in words) [1]: slow association and dissociation phases
CC(C)c1cc(Br)c(NC(=O)Nc2cccnc2)c(Br)c1 [BX430, reference compound] | – | – | – | – | experimental binding response unit (RU) [2]: 22.5 RU; IC50 [4]: 0.54 µM
CCCc1cc(O)c2c(c1)OC(C)(C)c1ccc(C)cc1-2 [CBV, cannabivarin] | – | 16.4 µM | 0.0405 s⁻¹ | 2470 M⁻¹ s⁻¹ | Response Unit (RU) ([2]; Fig. 6E: CBV alone): 0.9 RU; type of binding on P2X4 relative to 5-BDBD [2]: competitive P2X4-binders; also recorded: competitive binding; association/dissociation phase with P2X4 (sensorgram, in words) [1]: slow dissociation phase
CCCc1cc(O)cc(O)c1C(=O)O [Varinolic acid, varinolic acid] | did not demonstrate any binding affinity | – | – | – | –
CCCCc1cc(O)c2c(c1)OC(C)(C)C1CCC(C)=CC21 (stereo not drawn) [THCB, Δ^9-tetrahydrocannabibutol] | did not demonstrate any binding affinity | – | – | – | –
CCCc1cc(O)c2c(c1)OC(C)(CCC=C(C)C)C=C2 (stereo not drawn) [CBCV, cannabichromevarin] | did not demonstrate any binding affinity | – | – | – | –
CCCc1cc(O)c(C/C=C(\C)CCC=C(C)C)c(O)c1C(=O)O [CBGVA, cannabigerovarinic acid] | – | – | 0.174 s⁻¹ | 1890 M⁻¹ s⁻¹ | Kd [1, 6]: 92 µM; association/dissociation phase with P2X4 (sensorgram, in words) [1]: slow association and dissociation phases; RU (Response Units) values compared with theoretical Rmax [1]: higher than the theoretical Rmax
CCCCCc1cc2c(c(O)c1C(=O)O)[C@@H]1C=C(C)CC[C@H]1C(C)(C)O2 [THCA-A, Δ^9-tetrahydrocannabinolic acid A] | – | 117 µM | 0.101 s⁻¹ | 866 M⁻¹ s⁻¹ | association/dissociation phase with P2X4 (sensorgram, in words) [1]: slow association and dissociation phases; RU (Response Units) values compared with theoretical Rmax [1]: higher than the theoretical Rmax
C=C(C)[C@@H]1CCC(C)=C[C@H]1c1c(O)cc(CCCCC)cc1O [CBD, cannabidiol] | – | 1 µM | 0.02 s⁻¹ | 19200 M⁻¹ s⁻¹ | Response Unit (RU) ([2]; Fig. 6A: CBD alone): 6.9 RU; type of binding on P2X4 relative to 5-BDBD [2]: competitive P2X4-binders; also recorded: competitive binding; Kd [1, 6]: 1.04 µM; association/dissociation phase with P2X4 (sensorgram, in words) [1]: slow dissociation phase
C=C(C)[C@@H]1CCC(C)=C[C@H]1c1c(O)cc(CCCCC)c(C(=O)O)c1O [CBDA, cannabidiolic acid] | did not demonstrate any binding affinity | – | – | – | –
C=C(C)C1CCC(C)=CC1c1c(O)cc(CCCCCCC)cc1O (stereo not drawn) [CBDP, cannabidiphorol] | did not demonstrate any binding affinity | – | – | – | –
CCCCCc1cc(O)c2c(c1)OC1(C)CCC3C1C2C3(C)C (stereo not drawn) [CBL, cannabicyclol] | did not demonstrate any binding affinity | – | – | – | –
